Test system: NIH/3T3 embryonic mouse fibroblast cells
Assay: Cytotoxicity assay of hydrogel cultured cells by Cell Counting Kit-8 (CCK-8)
Format: cell-based
Conditions: hydrogel at 0.3 wt%, after 24 h, NIH/3T3 cells
Protocol: NIH/3T3 embryonic mouse fibroblast cells were cultured in DMEM culture medium (Lonza, 4,5 g/L glucose, 10 % FCS, 1 % penicillin/streptomycin) in a humidified incubator (5 % CO2, 37°C). The cells were grown in 175 cm^2 cell culture flaks and medium was changed thrice a week. Upon confluency of 70 % - 80 % the culture was subcultured according to the detected cell number.
To determine whether different peptide hydrogel compositions would be tolerated by the cells CCK-8 was used to conduct viability of cells during a 3 days cell culture. A suspension of NIH/3T3 cells in DMEM (4.5 g/L, 10 % FCS, 1 % penicillin/streptomycin) was seeded in a transparent 96-well plate with a density of 10.000 cells in an overall volume of 100 µL per well containing the respecting hydrogels. 10 µL of 1 % (w/v) SDS was added to the respective wells of positive control and the plate was further incubated for 24 h and 72 h at 37°C and 5 % CO2 respectively. After each time points 10 µL of CCK-8 solution were added to each well and allowed to incubate for 2 h in a humidified incubator at 37°C. During this time dehydrogenases in viable cells reduces WST-8 tetrazolium to formazan, which will be detected by measuring the absorbance at 450 nm. Absorbance was measured by using a Tecan Infinite 200 Pro microplate reader. Three experiments were performed in triplicates per hydrogel candidate (n=3). […]

In the case of `CC(C)C[C@H](NC(=O)[C@H](CCC(=O)O)NC(=O)[C@H](CCCCN)NC(=O)[C@H](CCCCN)NC(=O)[C@H](CC(C)C)NC(=O)[C@H](C)NC(=O)[C@H](C)NC(=O)[C@H](CC(C)C)NC(=O)[C@H](CCC(=O)O)NC(=O)[C@H](CCCCN)NC(=O)[C@H](CCCCN)NC(=O)[C@H](CC(C)C)NC(=O)[C@H](C)NC(=O)[C@H](C)NC(=O)[C@H](CC(C)C)NC(=O)[C@H](CCC(=O)O)NC(=O)[C@H](CCCCN)NC(=O)[C@H](CCCCN)NC(=O)[C@H](CC(C)C)NC(=O)[C@H](C)NC(=O)[C@H](C)NC(=O)[C@H](CC(C)C)NC(=O)[C@H](CCC(=O)O)NC(=O)[C@H](CCCCN)NC(=O)[C@H](CCCCN)NC(=O)[C@H](CC(C)C)NC(=O)c1ccccc1N)C(=O)O` [hFF03], the “viability compared to the control” value is reported as “higher than 160%”.

Reference: EP3909969A1, “PEPTIDE FOR HYDROGEL FORMATION” (Freie Universität Berlin, priority 2020, dated 2021)
